The source of these data is patent US10858367B2, “Compounds” (GLAXOSMITHKLINE INTELLECTUAL PROPERTY DEVELOPMENT LIMITED, priority 2017, dated 2020).

Structures can show the parent of a compound that is named as a salt.

The target of this test is T1, LRRK2 Ser935 phosphorylation in SH-SY5Y cells over-expressing recombinant full length LRRK2 (Homo sapiens, UniProt Q5S007).
T1 construct: A BacMam virus expressing full length recombinant LRRK2 was purchased from Invitrogen; host or cells: SH-SY5Y human neuroblastoma cells transduced with BacMam LRRK2 virus
Kind of test: Recombinant cellular LRRK2 AlphaScreen assay. The class given is cell-based. To be noted: human neuroblastoma SH-SY5Y cells, BacMam full length LRRK2, 60 minutes with compound, read-out: pIC50 in the recombinant cellular LRRK2 AlphaScreen assay (converted). An excerpt: b. Recombinant Cellular LRRK2 AlphaScreen Assay
To determine the activity of compounds against LRRK2 kinase activity in cells, the observed LRRK2 kinase-dependent modulation of LRRK2 Ser 935 phosphorylation (Dzamko et al., 2010, Biochem. J. 430: 405-413) was utilized to develop a quantitative 384 well plate-based immunoassay of LRRK2 Ser935 phosphorylation in the human neuroblastoma cell line SH-SY5Y, engineered to over-express recombinant full length LRRK2 protein.
A BacMam virus expressing full length recombinant LRRK2 was purchased from Invitrogen and amplified by inoculation of SF-9 cells at MOI 0.3 for 4-5 days in Sf-900 III SFM medium supplemented with 3% fetal bovine serum. Infected cell cultures were then centrifuged at 2000 g for 20 minutes, viral supernatant titer determined by anti-gp64 plaque assay and stored at 4° C.
Affinity-purified anti-phospho LRRK2 Ser935 sheep polyclonal antibody (Dzamko et al., 2010, Biochem. J. 430: 405-413) was biotinylated by standard methods (PerkinElmer). Anti-LRRK2 rabbit polyclonal antibody was purchased from Novus Biologicals. AlphaScreen Protein A IgG Kit (including acceptor and donor beads) was purchased from Perkin Elmer.
SH-SY5Y cells were grown in DMEM/F12 medium with 10% dialysed fetal bovine serum and harvested by treatment with 0.5% trypsin-EDTA for 5 minutes at 37° C. followed by centrifugation at 1000 rpm for 4 minutes. The cell pellet was resuspended in Opti-MEM reduced serum media (Invitrogen) at 200,000 cells/ml and mixed with the BacMam LRRK2 virus at MOI=50. 50 μl cell solutions were then dispensed to each well of a 384-well plate and incubated at 37° C., 5% CO2 for 24 hours.
Serial dilutions of test compounds were prepared in Opti-MEM reduced serum media (Invitrogen) and 5.6 ul transferred from compound plate to cell assay plate to achieve a top final assay concentration of 10 uM. DMSO was used in certain wells as controls. Cells were incubated at 37° C., 5% CO2 for 60 minutes. The medium was then removed and cells lysed by addition of 20 ul cell lysis buffer (Cell Signaling Technology) and incubation at 4° C. for 20 minutes. 10 ul of antibody/acceptor bead mix [(1/1000 biotinylated-pS935 LRRK2 antibody, 1/1000 total-LRRK2 antibody, 1/100 Acceptor beads in AlphaScreen detection buffer (25 mM Hepes (pH 7.4), 0.5% Triton X-100, 1 mg/ml Dextran 500 and 0.1% BSA)] was then added to each well and plates incubated for 2 hours at ambient temperature in the dark. 10 μl of donor beads solution (1/33.3 donor beads in AlphaScreen detection buffer) was then added to each well. Following incubation for a further 2 hours at ambient temperature in the dark, plates were read on an EnVision™ plate reader at emission 520-620 nm with excitation 680 nm. Dose response curve data was based on sigmoidal dose-response model.

T1 sequence (Q5S007 whole entry): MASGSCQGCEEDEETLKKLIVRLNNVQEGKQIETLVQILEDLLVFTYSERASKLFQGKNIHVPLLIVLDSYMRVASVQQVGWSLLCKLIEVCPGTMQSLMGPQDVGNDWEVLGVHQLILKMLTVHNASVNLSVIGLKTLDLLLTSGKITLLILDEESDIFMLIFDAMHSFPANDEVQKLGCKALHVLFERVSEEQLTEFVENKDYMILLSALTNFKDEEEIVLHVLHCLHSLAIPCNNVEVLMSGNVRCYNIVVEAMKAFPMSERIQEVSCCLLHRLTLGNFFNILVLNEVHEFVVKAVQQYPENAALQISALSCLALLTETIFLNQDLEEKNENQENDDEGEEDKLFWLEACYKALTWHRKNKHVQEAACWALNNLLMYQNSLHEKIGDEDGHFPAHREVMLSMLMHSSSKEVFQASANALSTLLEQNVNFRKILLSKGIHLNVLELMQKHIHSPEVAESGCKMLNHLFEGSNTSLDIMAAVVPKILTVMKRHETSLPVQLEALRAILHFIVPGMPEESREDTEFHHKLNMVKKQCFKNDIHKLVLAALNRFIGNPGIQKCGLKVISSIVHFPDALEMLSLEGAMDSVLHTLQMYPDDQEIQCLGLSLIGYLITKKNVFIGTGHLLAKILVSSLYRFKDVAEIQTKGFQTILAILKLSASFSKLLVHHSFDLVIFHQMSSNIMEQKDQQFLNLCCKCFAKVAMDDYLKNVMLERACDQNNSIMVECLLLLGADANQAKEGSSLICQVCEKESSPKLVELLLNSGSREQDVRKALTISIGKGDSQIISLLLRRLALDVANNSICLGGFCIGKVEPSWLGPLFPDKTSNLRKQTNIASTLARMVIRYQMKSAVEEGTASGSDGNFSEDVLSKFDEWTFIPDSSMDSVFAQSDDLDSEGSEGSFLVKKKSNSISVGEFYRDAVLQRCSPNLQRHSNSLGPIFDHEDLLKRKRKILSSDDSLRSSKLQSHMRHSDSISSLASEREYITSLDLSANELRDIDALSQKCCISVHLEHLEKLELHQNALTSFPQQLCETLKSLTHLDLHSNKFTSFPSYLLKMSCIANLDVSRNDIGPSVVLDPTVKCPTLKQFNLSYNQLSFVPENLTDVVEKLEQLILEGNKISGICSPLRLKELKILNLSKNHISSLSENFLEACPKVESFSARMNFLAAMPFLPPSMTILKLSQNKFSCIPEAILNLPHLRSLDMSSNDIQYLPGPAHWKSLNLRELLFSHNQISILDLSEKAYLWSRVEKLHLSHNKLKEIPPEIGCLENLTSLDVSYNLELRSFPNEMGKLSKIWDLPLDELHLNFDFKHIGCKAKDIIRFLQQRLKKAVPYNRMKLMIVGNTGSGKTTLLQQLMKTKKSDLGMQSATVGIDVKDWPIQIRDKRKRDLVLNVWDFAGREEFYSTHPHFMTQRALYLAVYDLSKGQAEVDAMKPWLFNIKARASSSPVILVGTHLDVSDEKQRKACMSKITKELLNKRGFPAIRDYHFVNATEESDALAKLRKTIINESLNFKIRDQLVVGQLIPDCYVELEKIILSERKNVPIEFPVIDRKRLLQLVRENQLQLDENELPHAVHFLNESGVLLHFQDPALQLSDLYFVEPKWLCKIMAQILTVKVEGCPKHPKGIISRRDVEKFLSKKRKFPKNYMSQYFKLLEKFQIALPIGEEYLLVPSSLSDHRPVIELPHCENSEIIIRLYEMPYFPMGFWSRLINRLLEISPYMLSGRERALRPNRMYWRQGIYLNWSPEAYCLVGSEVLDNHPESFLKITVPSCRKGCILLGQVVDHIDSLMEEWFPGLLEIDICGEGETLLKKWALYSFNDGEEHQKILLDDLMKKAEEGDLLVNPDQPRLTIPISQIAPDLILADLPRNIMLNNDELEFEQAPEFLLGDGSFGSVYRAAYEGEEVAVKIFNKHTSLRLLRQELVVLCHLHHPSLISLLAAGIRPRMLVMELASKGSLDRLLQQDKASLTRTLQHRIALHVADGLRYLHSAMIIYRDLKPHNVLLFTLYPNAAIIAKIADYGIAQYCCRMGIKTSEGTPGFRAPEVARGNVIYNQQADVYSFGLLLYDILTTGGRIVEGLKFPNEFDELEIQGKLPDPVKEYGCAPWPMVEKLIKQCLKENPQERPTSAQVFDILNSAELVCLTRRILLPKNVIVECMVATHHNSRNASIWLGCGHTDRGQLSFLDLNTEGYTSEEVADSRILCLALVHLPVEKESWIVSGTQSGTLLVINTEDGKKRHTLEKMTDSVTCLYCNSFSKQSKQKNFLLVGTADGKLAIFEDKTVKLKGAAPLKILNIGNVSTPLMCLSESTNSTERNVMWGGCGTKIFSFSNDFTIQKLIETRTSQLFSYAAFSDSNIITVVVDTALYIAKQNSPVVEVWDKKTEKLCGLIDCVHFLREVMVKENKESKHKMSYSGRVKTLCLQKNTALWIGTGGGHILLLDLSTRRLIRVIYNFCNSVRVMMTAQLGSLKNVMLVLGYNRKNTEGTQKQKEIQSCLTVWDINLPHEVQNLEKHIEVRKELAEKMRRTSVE

Regarding `Cc1nc(N2C3CCC2COC3)cc(-n2ncc3cc(C)c(C4CCN(C5COC5)CC4)cc32)n1` [Example E45, 8-(2-methyl-6-(5-methyl-6-(1-(oxetan-3-yl)piperidin-4-yl)-1H-indazol-1-yl)pyrimidin-4-yl)-3-oxa-8-azabicyclo[3.2.1]octane], the IC50 was no more than 1000 nM.

Consider `Cc1nc(N2CC3CC2CC3C(=O)O)cc(-n2ncc3cc(C)c(C4CCC(C)(O)CC4)cc32)n1` (single isomer, unassigned) [Example E75, 2-(6-(6-(cis-4-hydroxy-4-methylcyclohexyl)-5-methyl-1H-indazol-1-yl)-2-methylpyrimidin-4-yl)-2-azabicyclo[2.2.1]heptane-5-carboxylic Acid], for which the IC50 was no more than 10 nM. As to `Cc1nc(N2CC3CC2CC3C(=O)O)cc(-n2ncc3cc(C)c(C4CCOCC4)cc32)n1` (single isomer, unassigned) [Example E82, 2-{2-Methyl-6-[5-methyl-6-(tetrahydro-pyran-4-yl)-indazol-1-yl]-pyrimidin-4-yl}-2-aza-bicyclo[2.2.1]heptane-5-carboxylic Acid], the IC50 is no more than 1000 nM. For `COc1nc(N2CC3CCC(C2)O3)cc(-n2ncc3cc(C)c(C4CCNCC4)cc32)n1` [Example E62, 3-(2-methoxy-6-(5-methyl-6-(piperidin-4-yl)-1H-indazol-1-yl)pyrimidin-4-yl)-8-oxa-3-azabicyclo[3.2.1]octane 2,2,2-trifluoroacetate], the IC50 was no more than 1000 nM. For `Cc1nc(N2CC3CC(C2)O3)cc(-n2ncc3cc(C)c(C4CCNCC4)cc32)n1` [Example E61, 3-(2-methyl-6-(5-methyl-6-(piperidin-4-yl)-1H-indazol-1-yl)pyrimidin-4-yl)-6-oxa-3-azabicyclo[3.1.1]heptane 2,2,2-trifluoroacetate], the IC50 is no more than 1000 nM. As for `COc1nc(N2CC3CC2CC3C(=O)O)cc(-n2ncc3cc(Cl)c(O[C@H]4CCOC4)cc32)n1` (single isomer, unassigned) [Example E84], the IC50 was no more than 1000 nM. `Cc1nc(N2C3COCC2COC3)cc(-n2ncc3cc(C)c(C4CCN(C5COC5)CC4)cc32)n1` [Example E46, 9-(2-methyl-6-(5-methyl-6-(1-(oxetan-3-yl)piperidin-4-yl)-1H-indazol-1-yl)pyrimidin-4-yl)-3,7-dioxa-9-azabicyclo[3.3.1]nonane]: the IC50 is no more than 1000 nM.

Take `Cc1nc(N2CC3CC(C2)C3C(=O)O)cc(-n2ncc3cc(C)c(C4CCC(C)(O)CC4)cc32)n1` (single isomer, unassigned) [Example E78, Cis-3-{6-[6-(4-Hydroxy-4-methyl-cyclohexyl)-5-methyl-indazol-1-yl]-2-methyl-pyrimidin-4-yl}-3-aza-bicyclo[3.1.1]heptane-6-carboxylic Acid]: the IC50 is no more than 10 nM.

Consider `Cc1nc(N2C[C@@]3(CO)C[C@@H]2CO3)cc(-n2ncc3cc(C)c(C4CCOCC4O)cc32)n1` (single isomer, unassigned) [Example E168, 4-(1-(6-(1-(hydroxymethyl)-2-oxa-5-azabicyclo[2.2.1]heptan-5-yl)-2-methylpyrimidin-4-yl)-5-methyl-1H-indazol-6-yl)tetrahydro-2H-pyran-3-ol], for which the IC50 is no more than 1000 nM. In the case of `Cc1nc(N2C[C@H]3C[C@@H]2CN3C2COC2)cc(-n2ncc3cc(C)c([C@H]4CC[C@](C)(O)CC4)cc32)n1` [Example E31, Trans-1-methyl-4-(5-methyl-1-(2-methyl-6-((1R,4R)-5-(oxetan-3-yl)-2,5-diazabicyclo[2.2.1]heptan-2-yl)pyrimidin-4-yl)-1H-indazol-6-yl)cyclohexanol] it was 1070 nM; in that of `COc1nc(N2C[C@H]3C[C@@H]2CO3)cc(-n2ncc3cc(C)c(C4CCC(N5CCOCC5)CC4)cc32)n1` (single isomer, unassigned) [Example E71], no more than 1000 nM; in that of `Cc1nc(N2CC3CC2CO3)cc(-n2ncc3cc(C)c(C4CCN([C@H]5CCOC5)CC4O)cc32)n1` (single isomer, unassigned) [Example E137], no more than 1000 nM.

In the case of `Cc1nc(N2CC3CC2CC3C(=O)O)cc(-n2ncc3cc(C)c(C4CCC(C)(O)CC4)cc32)n1` (single isomer, unassigned) [Example E76, 2-(6-(6-(cis-4-hydroxy-4-methylcyclohexyl)-5-methyl-1H-indazol-1-yl)-2-methylpyrimidin-4-yl)-2-azabicyclo[2.2.1]heptane-5-carboxylic Acid, TFA Salt], the IC50 is no more than 10 nM. As to `Cc1nc(N2C[C@@H]3C[C@H]2CO3)cc(-n2ncc3cc(Cl)c(N4CCC(C)(O)CC4)cc32)n1` [Example E33, 1-(1-(6-((1S,4S)-2-oxa-5-azabicyclo[2.2.1]heptan-5-yl)-2-methylpyrimidin-4-yl)-5-chloro-1H-indazol-6-yl)-4-methylpiperidin-4-ol], the IC50 was no more than 1000 nM. Take `COc1nc(N2C[C@@H]3C[C@H]2CO3)cc(-n2ncc3ccc(OC4(C)CC4)cc32)n1` [Example E4, (1S,4S)-5-(2-methoxy-6-(6-(1-methylcyclopropoxy)-1H-indazol-1-yl)pyrimidin-4-yl)-2-oxa-5-azabicyclo[2.2.1]heptane]: the IC50 is no more than 1000 nM.

For the molecule `Cc1nc(N2C[C@@H]3C[C@H]2CN3C2COC2)cc(-n2ncc3cc(C)c([C@H]4CC[C@](C)(O)CC4)cc32)n1` [Example E32, Trans-1-methyl-4-(5-methyl-1-(2-methyl-6-((1S,4S)-5-(oxetan-3-yl)-2,5-diazabicyclo[2.2.1]heptan-2-yl)pyrimidin-4-yl)-1H-indazol-6-yl)cyclohexanol], the IC50 was 1860 nM. Consider `COc1nc(N2C[C@H]3C[C@@H]2CO3)cc(-n2ncc3cc(C)c(C4CCN(C5CCOC5)CC4)cc32)n1` (single isomer, unassigned) [Example E13], for which the IC50 is no more than 1000 nM.

Regarding `COc1nc(N2C[C@H]3C[C@@H]2CO3)cc(-n2ncc3cc(C)c(C4CCN(CCO)CC4F)cc32)n1` (single isomer, unassigned) [Example E17], the IC50 is no more than 10 nM. Regarding `Cc1nc(N2C[C@@H]3C[C@H]2CO3)cc(-n2ncc3cc(Cl)c(N4CCC(C)(O)C4)cc32)n1` (single isomer, unassigned) [Example E47], the IC50 was no more than 1000 nM.

In the case of `COc1nc(N2CC3CC2CO3)cc(-n2ncc3cc(C)c([C@H]4CC[C@](C)(O)CC4)cc32)n1` (single isomer, unassigned) [Example E12], the IC50 was no more than 1000 nM. Take `Cc1nc(N2C[C@H]3C[C@@H]2CO3)cc(-n2ncc3cc(Cl)c(C4CCN(C5COC5)CC4)cc32)n1` [Example E25, (1R,4R)-5-(6-(5-chloro-6-(1-(oxetan-3-yl)piperidin-4-yl)-1H-indazol-1-yl)-2-methylpyrimidin-4-yl)-2-oxa-5-azabicyclo[2.2.1]heptane]: the IC50 was no more than 1000 nM. `Cc1nc(N2C[C@H]3C[C@@H]2CO3)cc(-n2ncc3cc(C)c(C4CCN(C5COCC5O)CC4)cc32)n1` (single isomer, unassigned) [Example E172]: the IC50 was no more than 1000 nM.

For the molecule `Cc1nc(N2CC3CC2CO3)cc(-n2ncc3cc(C)c([C@H]4CC[C@](C)(O)CC4)cc32)n1` (single isomer, unassigned) [Example E10], the IC50 is no more than 1000 nM. In the case of `COc1nc(N2C[C@@H]3C[C@H]2CO3)cc(-n2ncc3cc(Cl)c(C4CCN(C5CCOC5)CC4)cc32)n1` (single isomer, unassigned) [Example E69] it was no more than 1000 nM.
